assay: Solubility and structural stability of peptides; format: physicochemical; conditions: effect of adding HR2 hydrophilic residues to the LK21 N-terminus; qualitative

Compound	solubility and structural stability
Ac-EESQNQQEKNEQELLELDKWASLWNWFNITNWLWYIK-NH2 [EK37]	greatly enhanced
CC[C@H](C)[C@H](NC(=O)[C@H](Cc1ccc(O)cc1)NC(=O)[C@H](Cc1c[nH]c2ccccc12)NC(=O)[C@H](CC(C)C)NC(=O)[C@H](Cc1c[nH]c2ccccc12)NC(=O)[C@H](CC(N)=O)NC(=O)[C@@H](NC(=O)[C@@H](NC(=O)[C@H](CC(N)=O)NC(=O)[C@H](Cc1ccccc1)NC(=O)[C@H](Cc1c[nH]c2ccccc12)NC(=O)[C@H](CC(N)=O)NC(=O)[C@H](Cc1c[nH]c2ccccc12)NC(=O)[C@H](CC(C)C)NC(=O)[C@H](CO)NC(=O)[C@H](C)NC(=O)[C@H](Cc1c[nH]c2ccccc12)NC(=O)[C@H](CCCCN)NC(=O)[C@H](CC(=O)O)NC(=O)[C@H](CC(C)C)NC(=O)[C@H](CCC(=O)O)NC(=O)[C@H](CC(C)C)NC(=O)[C@H](CC(C)C)NC(=O)[C@H](CCC(=O)O)NC(=O)[C@H](CCC(N)=O)NC(=O)[C@H](CCC(=O)O)NC(=O)[C@H](CC(N)=O)NC(=O)[C@H](CCCCN)NC(=O)[C@H](CCC(=O)O)NC(C)=O)[C@@H](C)CC)[C@@H](C)O)C(=O)N[C@@H](CCCCN)C(N)=O [EK30]	greatly enhanced
CC[C@H](C)[C@H](NC(=O)[C@H](Cc1ccc(O)cc1)NC(=O)[C@H](Cc1c[nH]c2ccccc12)NC(=O)[C@H](CC(C)C)NC(=O)[C@H](Cc1c[nH]c2ccccc12)NC(=O)[C@H](CC(N)=O)NC(=O)[C@@H](NC(=O)[C@@H](NC(=O)[C@H](CC(N)=O)NC(=O)[C@H](Cc1ccccc1)NC(=O)[C@H](Cc1c[nH]c2ccccc12)NC(=O)[C@H](CC(N)=O)NC(=O)[C@H](Cc1c[nH]c2ccccc12)NC(=O)[C@H](CC(C)C)NC(=O)[C@H](CO)NC(=O)[C@H](C)NC(=O)[C@H](Cc1c[nH]c2ccccc12)NC(=O)[C@H](CCCCN)NC(=O)[C@H](CC(=O)O)NC(=O)[C@H](CC(C)C)NC(=O)[C@H](CCC(=O)O)NC(=O)[C@H](CC(C)C)NC(=O)[C@H](CC(C)C)NC(=O)[C@H](CCC(=O)O)NC(=O)[C@H](CCC(N)=O)NC(C)=O)[C@@H](C)CC)[C@@H](C)O)C(=O)N[C@@H](CCCCN)C(N)=O [QK26]	greatly enhanced

— PMC4521866 (PLoS ONE, 2015)
